# Laboratory results reported in patent publication US9066516B2, “Uses of thaxtomin and thaxtomin compositions as herbicides” (priority 2008, dated 2015).
# What was measured:
# Format in all cases: in vivo
# [1] = tested on: Smallflower (Cyperus difformis); assay: Post-emergence test of MBI-005, field (Example 13); details: Smallflower (sedge)
# Description: (§1) In field testing, field soil containing weeds at the 1-5 leaf stage were treated with 38.2 L MBI-005/ha at a spray volume of 374 L/ha. Treatments, including water as the negative control and WeedBGon or Preen Broadleaf as the positive control, were replicated four times and applied twice at a four week interval. The positive control on Late watergrass, Ricefield Bulrush, Smallflower sedge and Arrowhead was an herbicide containing as active ingredient 2,4-D and an organosilicone surfactant was added to MBI-005. Treatments were assessed for % control and % ground cover.
# [2] = tested on: Bermuda buttercup (Oxalis pes-caprae); assay: Post-emergence test of MBI-005, field (Example 13)
# Description: as §1
# [3] = tested on: Nightshade, Eastern Black (Solanum ptychanthum); assay: Post-emergence test of MBI-005, field (Example 13)
# Description: as §1
# [4] = tested on: Hairy galinsoga (Galinsoga ciliata); assay: Post-emergence test of MBI-005, field (Example 13)
# Description: as §1
# [5] = tested on: Shepherd's purse (Capsella bursa-pastoris); assay: Post-emergence test of MBI-005, field (Example 13)
# Description: as §1
# [6] = tested on: barnyard grass; assay: Greenhouse spray test bialaphos + MBI-005 (Example 10)
# Description: The MBI-005 and bialaphos were prepared at various concentrations either as single ingredients or in combination with bialaphos. The treatments were applied at approximately ⅔ ml per replicate with a hand-help spray nozzle to barnyard grass or sedge. There were 3 replicates per treatment which were randomized after spray and were kept in a greenhouse at 25° C. for evaluation of phytotoxicity (% control).
# [7] = tested on: small flower umbrella sedge; assay: Post-emergent MBI-005 + rice herbicides on smallflower umbrella sedge (Example 19); details: 14 days
# Description: (§2) Twenty seedlings in 2.5 cm square pots containing plant growth mix were sprayed to full coverage using a hand sprayer. Negative controls were sprayed with water. Pots were randomly placed in a growth room at 25° C. and 50% RH, and watered as necessary. Treatments were replicated three times and evaluated at 7 and 14 days for visual % damage, with 0% indicating no damage and 100% indicating plant death.
# (§3) Synergy was calculated as the ratio of observed (E) to expected (E/Ee) percent control using Colby's formula.
# [8] = tested on: annual broadleaves, sedges and grasses; assay: Post-emergence spectrum of MBI-005, overall (Example 13); details: unless surfactants are added
# Description: To further describe the spectrum of post-emergence activity, tests were conducted in laboratory and field conditions. For laboratory testing, 3-10 plants (depending on the species) at the 1-2 leaf stage plants in 2.5 cm square pots containing Sunshine Mix No. 2 planting media were sprayed at 1 mg MBI-005/mL at a rate of 40 gal/A using a cabinet track sprayer. Negative controls were sprayed with water and positive controls with glufosinate. Pots were randomly placed in a growth room at 25° C. and 50% RH, and watered as necessary. Treatments were replicated five times and evaluated at 7 and 14 days for visual % damage, with 0% indicating no damage and 100% indicating plant death.
# as §1
# Post-emergent control of perennials was generally limited except for Oxalis pes-caprae.
# [9] = tested on: crabgrass; assay: Post-emergent MBI-005 + Atrazine on crabgrass (Example 17); details: for AVG E (visual % damage): 7DAT; for AVG/ E (visual % damage): 14DAT
# Description: as §2, with “Ten” for “Twenty”, “with two suboptimal rates of MBI-005, and 35% of the atrazine label rate (0.3 gallons/A), or a combination thereof, at a volume of 40 gal/A” for “to full coverage”, “cabinet track” for “hand”, “five” for “three”
# as §3
# [10] = tested on: grass species; assay: Greenhouse test on grass species (Example 4); details: 0.5 or 1.0 mg/mL thaxtomin A
# Description: A strain of S. acidiscabies (ATCC-49003) is grown in oat bran broth for 5 days (25° C., 200 rpm). The whole cell broth with thaxtomin A is extracted using XAD resin. The dried crude extract was resuspended in 4% ethanol and 0.02% non-ionic surfactant at a concentration of 10 mg/mL, and the solutions with two different concentrations of thaxtomin A (0.5 and 1.0 mg/mL) are tested the following broadleaf weed species:
# and on the following grass weed species:
# All plant species are tested in 4″×4″ plastic pots in three replicates. The untreated control plants are sprayed with the carrier solution (4% Ethanol, 0.02% glycosperse) and the positive control plants with Roundup at a rate corresponding to 1 fl. oz/acre. Treated plants are kept in a greenhouse under 12 h light/12 h dark conditions.
# [11] = tested on: Chickweed (Stellaria media); assay: Pre-emergence test of MBI-005, field (Example 12); details: pre-emergent; note: ranges in brackets are in %
# Description: (§4) In field testing, field soil containing weed seeds were treated with 38.2 L MBI-005/ha at a spray volume of 280 L/ha using a CO2 sprayer with flat fan nozzles. Treatments, including water as the negative control and Gallery as the positive control, were replicated four times and applied twice at a four week interval. Treatments were evaluated visually as % cover and above-ground fresh weights per container were taken.
# [12] = tested on: Velvetleaf (Abutilon theophrasti); assay: Pre-emergence test of MBI-005, field (Example 12); details: pre-emergent; note: ranges in brackets are in %
# Description: as §4
# [13] = tested on: Common groundsel (Senecio vulgaris); assay: Pre-emergence test of MBI-005, field (Example 12); details: pre-emergent; note: ranges in brackets are in %
# Description: as §4
# [14] = tested on: Dandelion (Taraxacum oficinale); assay: Pre-emergence test of MBI-005, field (Example 12); details: pre-emergent; note: ranges in brackets are in %
# Description: as §4
# [15] = tested on: Shepherd's purse (Capsella bursa-pastora); assay: Pre-emergence test of MBI-005, field (Example 12); details: pre-emergent; note: ranges in brackets are in %
# Description: as §4
# [16] = tested on: Hairy galinsoga (Galinsoga ciliata); assay: Pre-emergence test of MBI-005, field (Example 12); details: pre-emergent; note: ranges in brackets are in %
# Description: as §4
# [17] = tested on: Common yellow oxalis (Oxalis stricta); assay: Pre-emergence test of MBI-005, field (Example 12); details: pre-emergent; note: ranges in brackets are in %
# Description: as §4
# [18] = tested on: Eclipta (Eclipta alba); assay: Pre-emergence test of MBI-005, field (Example 12); details: pre-emergent; note: ranges in brackets are in %
# Description: as §4
# [19] = tested on: Marsh watercress (Rorippa islandica); assay: Pre-emergence test of MBI-005, field (Example 12); details: pre-emergent; note: ranges in brackets are in %
# Description: as §4
# [20] = tested on: Flexuous bittercress (Cardamine flexuosa); assay: Pre-emergence test of MBI-005, field (Example 12); details: pre-emergent; note: ranges in brackets are in %
# Description: as §4
# [21] = tested on: New Zealand moss (Sagina procumbens); assay: Pre-emergence test of MBI-005, field (Example 12); details: pre-emergent; note: ranges in brackets are in %
# Description: as §4
# [22] = tested on: Henbit (Lamimum amplexicaule); assay: Pre-emergence test of MBI-005, field (Example 12); details: pre-emergent; note: ranges in brackets are in %
# Description: as §4
# [23] = tested on: Bittercress (Cardamine hirsuta); assay: Pre-emergence test of MBI-005, field (Example 12); details: pre-emergent; note: ranges in brackets are in %
# Description: as §4
# [24] = 12.5% MBI-005 Label Rate (0.125 mg/mL)
# [25] = 25% MBI-005 Label Rate (0.25 mg/mL)
compound,measurement,setting,value
CN1C(=O)[C@](O)(Cc2cccc(O)c2)N(C)C(=O)[C@@H]1Cc1c[nH]c2cccc([N+](=O)[O-])c12 [thaxtomin A],Rating at 1 mg/ml (Post-Emergence % control),[1],++++ (91-100)
same,Rating at 1 mg/ml (Post-Emergence % control),[2],++++ (91-100)
same,Rating at 1 mg/ml (Post-Emergence % control),[3],++ (51-80)
same,Rating at 1 mg/ml (Post-Emergence % control),[4],+++ (81-90)
same,Rating at 1 mg/ml (Post-Emergence % control),[5],++++ (91-100)
same,% Control (14 days),"[6]; Table 6, MBI-005 0.25 mg/L",1.3 ab %
same,% Control (14 days),"[6]; Table 7, MBI-005 0.25 mg/mL",6.7 bc %
same,% Control (7 days),"[6]; Table 8, MBI-005 0.38 mg/mL",6.7 ab %
same,% Control (14 days),"[6]; Table 8, MBI-005 0.38 mg/mL",21.7 b %
same,% Control MBI-005,[7]; MBI-005 0.5% of the label rate (Bispyribac-sodium line),3.3%
same,% Control MBI-005,[7]; MBI-005 2.0% of the label rate (Penoxsulam line),20.0%
same,% Control MBI-005,[7]; MBI-005 2.0% of the label rate (Propanil line),20.0%
same,% Control MBI-005,[7]; MBI-005 2.0% of the label rate (Thiobencarb line),20.0%
same,post-emergent activity,[8],limited post-emergent activity
same,AVG E (visual % damage),[9]; [24],10.0%
same,AVG E (visual % damage),[9]; [25],11.9%
same,AVG/ E (visual % damage),[9]; [24],10.0%
same,AVG/ E (visual % damage),[9]; [25],11.9%
same,adverse effects on grass species,[10],no adverse effects are observed
same,Rating at 0.1 mg/ml (Reduction of Germination),[11],++++ (95-100)
same,Rating at 0.1 mg/ml (Reduction of Germination),[12],++ (60-84)
same,Rating at 0.1 mg/ml (Reduction of Germination),[13],++++ (95-100)
same,Rating at 0.1 mg/ml (Reduction of Germination),[14],++++ (95-100)
same,Rating at 0.1 mg/ml (Reduction of Germination),[15],++++ (95-100)
same,Rating at 0.1 mg/ml (Reduction of Germination),[16],+++ (85-94)
same,Rating at 0.1 mg/ml (Reduction of Germination),[17],++++ (95-100)
same,Rating at 0.1 mg/ml (Reduction of Germination),[18],++ (60-84)
same,Rating at 0.1 mg/ml (Reduction of Germination),[19],++++ (95-100)
same,Rating at 0.1 mg/ml (Reduction of Germination),[20],++ (60-84)
same,Rating at 0.1 mg/ml (Reduction of Germination),[21],++++ (95-100)
same,Rating at 0.1 mg/ml (Reduction of Germination),[22],+++ (85-94)
same,Rating at 0.1 mg/ml (Reduction of Germination),[23],+++ (85-94)
